The record followed here is patent publication EP1383793B1 (priority 2000, dated 2001).

In data set [1] the target is human IGF-1 receptor (HIGF-1R) (Homo sapiens, UniProt P08069). Description: 125I-IGF-1 competition binding assay on solubilised purified receptor.
Data set [2] has as its target T1, IR (Homo sapiens, UniProt P06213).
T1 construct: composed of the extracellular domains of both the α and β chains of the natural receptor; made in house; background b13 names human embryonic kidney 293 cells for the Bass et al. construct
In words: Phage ELISA, binding of phage-displayed peptides to IR. The procedure:
Amino acid sequences comprising the motif of Formulas 1 through 10. […] Fifty microliters of this solution was added to an appropriate number of wells in a 96-well microtiter plate (MaxiSorp plates, Nunc) and incubated overnight at 4°C. […] To isolate specific binders, each library was panned against a soluble form of the human IR. This IR is composed of the extracellular domains of both the α and β chains of the natural receptor, as well as the constant domain from immunoglobulin Fc, retaining the β-α-α-β structure described above. Because the IR is expressed in a eukaryotic system, disulfide bond formation and glycosylation patterns should mimic the wild-type receptor. The details of this recombinant protein construct are described in Bass et al. (1996). Phage ELISA. […] The wells were blocked with 200 µl of MPBS for 1.5 h at RT. […] Peptides were added as noted below and allowed to incubate at RT for 3 h. The plates were washed 3 times with PBST. A solution of 1:3000 diluted HRP:Anti-M13 conjugate at 100 µl per well of was added for 1 h. Following a repeat of the washing, 100 µl of ABTS was added for 15-30 min. […] Phage ELISA. […] Peptides were added as noted below and allowed to incubate at RT for 3 h. […] A solution of 1:3000 diluted HRP:Anti-M13 Conjugate at 100 µl per well of was added for 1 h. Following a repeat of the washing, 100 µl of ABTS was added for 15-30 min. The OD405 was measured using a SpectraMax 340 Microplate Spectrophotometer.

The next data set addresses T2, Insulin receptor (Homo sapiens, UniProt P06213).
T2 construct: composed of the extracellular domains of both the α and β chains of the natural receptor; made in house; background b13 names human embryonic kidney 293 cells for the Bass et al. construct
In words: Heterogeneous time-resolved fluorescence assay (TRFA) on insulin receptor. It is filed as binding. The procedure: In this assay, saEu forms a ternary complex with bP and IR (i.e., IR:bP:saEu complex). The TRFD assay format is well established, sensitive, and quantitative (Tompkins et al., 1993). The assay can use a single-chain antibody or a biotinylated peptide.
In these assays, soluble IR is coated on the surface of microtiter wells, blocked by a solution of 0.5% BSA and 2% non-fat milk in PBS, and then incubated with biotinylated peptide or rVab. Unbound bP is then washed away and saEu is added to complex with receptor-bound bP. Upon addition of the acidic enhancement solution, the bound europium is released as free Eu^3+ which rapidly forms a highly fluorescent and stable complex with components of the enhancement solution. The IR:bP bound saEu is then converted into its highly fluorescent state and detected by a detector such as Wallac Victor II (EG&G Wallac, Inc.)
• a. Heterogeneous Time-Resolved Fluorescence Assay. […] The plates were blocked with TBS containing 2% milk and 0.5% BSA for 1 h at RT followed by three TBS washes. […] After TBS wash, europium-labeled streptavidin at 1 µg/ml in assay buffer (100 mM Tris-HCl, pH 7.8; 150 mM NaCl; 0.5% BSA; 0.05% bovine Ig; 0.05% NaN3; 0.01% Tween-20) was added to the plates and incubated for 1 h. To test binding of rVab antibodies to IR, Eu-labeled rVab antibodies in assay buffer were added to the plates and incubated for 2 h to overnight. After incubation with Eu-labeled streptavidin (for peptide test) or europium-labeled rVabs, the plates were washed 5 times with Tris-buffered saline (pH 7.5) containing 0.1 % Tween-20 (TTBS) and tapped dry. Sixty microliters of EG&G Wallac enhancement solution (100 mM acetone-potassium hydrogen pthalate, pH 3.2; […] 2-naphtyltrifluoroacetate; […] tri(n-octyl)-phosphine oxide; 0.1 % Triton X-100) was added into each well, and the plates were placed onto a shaker for 20 min at RT. […] Homogeneous Time-Resolved Fluorescence Assay. […] For library screening, 20 µM of small organic molecules in 2 % DMSO are included in the mixture.

Data set [3] concerns the target T1, IR. Description: Phage ELISA, competition of phage binding by soluble synthetic peptides, IR-coated wells. The following applies: Insulin Receptor.
Description: (§1) Phage ELISA. […] The wells were blocked with 200 µl of MPBS for 1.5 h at RT. Phage were added at 100 µl per well. Peptides were added as noted below and allowed to incubate at RT for 3 h. The plates were washed 3 times with PBST. A solution of 1:3000 diluted HRP:Anti-M13 conjugate at 100 µl per well of was added for 1 h. Following a repeat of the washing, 100 µl of ABTS was added for 15-30 min.
(§2) Peptide Competition. […] Twenty microliters of the stock synthetic-peptide solution was added to Row A. A series of 20 µl into 100 µl dilutions were performed until Row G. Twenty microliters were discarded from Row G to maintain 100 µl per well. Row H was reserved as no peptide wells. […] The volume was maintained by the addition of 18 µl of the phage solution to Row A.
(§3) Phage ELISA. […] The wells were blocked with 200 µl of 2% (w/v) Carnation non-fat dry milk in PBS for 1.5 h at RT. Phage were added at 100 µl per well. Peptides were added as noted below and allowed to incubate at RT for 3 h. The plates were washed 3X with PBST. A solution of 1:3000 diluted HRP:Anti-M13 Conjugate at 100 µl per well of was added for 1 h. Following a repeat of the washing, 100 µl of ABTS was added for 15-30 min. The OD405 was measured using a SpectraMax 340 Microplate Spectrophotometer.
(§4) Peptide Competition. Peptide Competition Curves were produced during the phage ELISA across rows in triplicate. The stock synthetic peptide solution was added to Column 12 so that the total volume totaled 150 µl (additional phage solution was added when necessary). A serial dilution was made by transferring 50 µl from Column 12 into 100 µl in Column 11, 50 µl from Column 11 into 100 µl in Column 10, and continuing the serial dilution until Column 2. Fifty microliters were discarded from Column 2 to maintain 100 µl per well. Column 1 was reserved as no peptide wells.
(§5) A p53-like peptide that binds to MDM2 was used as a negative control.
The next data set has as its system adipocytes. Description: 3H-glucose uptake into adipocytes (fat cell assay, FFC). The settings on record: Subjective ranking; basal and sub maximal insulin; includes series A. The data set is classed as cell-based, Mouse.
In data set [4] the target is T3, IGF-1R (Homo sapiens, UniProt P08069).
T3 construct: Soluble IGF-1R was obtained from R&D Systems; purchased R&D Systems 391-GR/CF
Description: Phage ELISA, competition of phage binding by soluble synthetic peptides, IGF-1R-coated wells. The settings on record: IGF Receptor, H2 Phage.
Description: as §1, §2, §3, §4, §5

Data set [5] has as its target T3, IGF-1R. In words: Heterogeneous time-resolved fluorescence (Eu) competitive binding assay on IGF-1R. The procedure: The TRFD assay format is well established, sensitive, and quantitative (Tompkins et al., 1993).
In these assays, soluble IGF-1 receptor is coated on the surface of microtiter wells, blocked by PBS containing milk and BSA, and then incubated with biotinylated peptide or rVab. Unbound bP is then washed away and saEu is added to complex with receptor-bound bP. Upon addition of the acidic enhancement solution, the bound europium is released as free Eu^+3 which rapidly forms a highly fluorescent and stable complex with components of the enhancement solution.
The plates were blocked with PBS containing 2% non-fat milk and 0.05% BSA for 2 h at RT, followed by three PBS washes. […] The plates were then washed 5 times with TTBS (TBS buffer containing Tween-20; Wallac) and tapped dry.

A short description of data set [6]: Precipitate in diluted peptide stock prior to adding to the fat cell assay; solubility under assay conditions. The data set is classed as physicochemical. The following applies: diluted stock prior to adding to assay.

T1 sequence (P06213 28-758 limits assumed): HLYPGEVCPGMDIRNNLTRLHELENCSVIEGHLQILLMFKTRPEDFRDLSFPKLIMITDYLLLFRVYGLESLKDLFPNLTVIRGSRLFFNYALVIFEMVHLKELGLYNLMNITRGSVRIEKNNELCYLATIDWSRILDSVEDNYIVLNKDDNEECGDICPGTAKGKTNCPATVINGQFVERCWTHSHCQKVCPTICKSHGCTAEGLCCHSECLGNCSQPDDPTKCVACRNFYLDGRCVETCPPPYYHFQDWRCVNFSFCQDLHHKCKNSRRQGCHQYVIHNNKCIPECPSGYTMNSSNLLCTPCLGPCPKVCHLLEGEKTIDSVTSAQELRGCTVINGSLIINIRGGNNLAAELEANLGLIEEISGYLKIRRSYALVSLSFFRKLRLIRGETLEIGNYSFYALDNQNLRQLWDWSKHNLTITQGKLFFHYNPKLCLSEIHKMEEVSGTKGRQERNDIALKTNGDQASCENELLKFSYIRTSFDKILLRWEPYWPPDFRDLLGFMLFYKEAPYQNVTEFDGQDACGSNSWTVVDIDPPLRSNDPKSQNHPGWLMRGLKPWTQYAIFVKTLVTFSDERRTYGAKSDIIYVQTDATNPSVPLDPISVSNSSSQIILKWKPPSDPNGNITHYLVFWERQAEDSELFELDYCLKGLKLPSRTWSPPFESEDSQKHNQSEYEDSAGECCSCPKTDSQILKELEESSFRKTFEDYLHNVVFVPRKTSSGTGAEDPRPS
T1 sequence (P06213 763-956 limits assumed): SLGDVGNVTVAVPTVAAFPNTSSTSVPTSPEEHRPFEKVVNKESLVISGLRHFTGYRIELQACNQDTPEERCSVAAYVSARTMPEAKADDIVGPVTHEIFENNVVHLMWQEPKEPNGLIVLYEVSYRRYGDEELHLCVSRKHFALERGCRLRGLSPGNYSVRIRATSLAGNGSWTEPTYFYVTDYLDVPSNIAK
Chain of human IGF-1 receptor (HIGF-1R) (P08069 31-736 limits assumed): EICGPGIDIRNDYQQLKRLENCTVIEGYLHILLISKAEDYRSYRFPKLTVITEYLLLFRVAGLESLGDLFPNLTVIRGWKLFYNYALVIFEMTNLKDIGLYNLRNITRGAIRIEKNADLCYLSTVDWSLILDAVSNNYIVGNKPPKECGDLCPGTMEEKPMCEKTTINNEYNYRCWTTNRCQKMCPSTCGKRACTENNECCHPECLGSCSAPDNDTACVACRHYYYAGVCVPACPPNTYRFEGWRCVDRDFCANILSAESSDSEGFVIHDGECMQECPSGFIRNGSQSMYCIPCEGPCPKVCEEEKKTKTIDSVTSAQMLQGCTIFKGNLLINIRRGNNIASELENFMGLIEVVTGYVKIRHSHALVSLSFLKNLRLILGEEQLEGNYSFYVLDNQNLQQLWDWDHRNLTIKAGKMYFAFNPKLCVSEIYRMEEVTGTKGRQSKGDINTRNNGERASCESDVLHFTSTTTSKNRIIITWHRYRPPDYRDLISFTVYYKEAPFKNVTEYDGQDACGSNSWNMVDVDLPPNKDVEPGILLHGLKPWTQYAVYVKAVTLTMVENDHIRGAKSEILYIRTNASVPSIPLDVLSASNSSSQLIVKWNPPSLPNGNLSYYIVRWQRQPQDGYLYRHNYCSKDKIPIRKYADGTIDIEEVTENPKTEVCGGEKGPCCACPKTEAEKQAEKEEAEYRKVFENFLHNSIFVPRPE
Chain of human IGF-1 receptor (HIGF-1R) (P08069 741-1367 limits assumed): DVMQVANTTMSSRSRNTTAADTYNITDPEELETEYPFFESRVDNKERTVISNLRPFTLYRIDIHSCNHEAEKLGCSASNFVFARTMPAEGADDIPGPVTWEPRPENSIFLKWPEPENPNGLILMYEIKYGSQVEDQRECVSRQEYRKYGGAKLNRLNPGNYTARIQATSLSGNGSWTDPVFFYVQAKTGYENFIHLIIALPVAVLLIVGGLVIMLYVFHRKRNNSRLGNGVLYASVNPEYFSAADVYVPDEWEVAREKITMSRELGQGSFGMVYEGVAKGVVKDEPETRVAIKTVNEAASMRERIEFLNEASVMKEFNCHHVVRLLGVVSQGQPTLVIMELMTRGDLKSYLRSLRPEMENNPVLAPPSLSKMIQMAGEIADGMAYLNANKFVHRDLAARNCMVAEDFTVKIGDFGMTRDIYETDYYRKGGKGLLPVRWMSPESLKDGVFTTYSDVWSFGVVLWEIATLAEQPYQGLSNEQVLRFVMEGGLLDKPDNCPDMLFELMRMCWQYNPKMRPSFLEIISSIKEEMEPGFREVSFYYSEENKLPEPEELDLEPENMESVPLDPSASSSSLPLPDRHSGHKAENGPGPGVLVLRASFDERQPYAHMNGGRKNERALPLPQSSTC
T3 sequence (P08069 31-736 limits assumed): as the sequence (P08069 31-736 limits assumed) above
T3 sequence (P08069 741-935 limits assumed): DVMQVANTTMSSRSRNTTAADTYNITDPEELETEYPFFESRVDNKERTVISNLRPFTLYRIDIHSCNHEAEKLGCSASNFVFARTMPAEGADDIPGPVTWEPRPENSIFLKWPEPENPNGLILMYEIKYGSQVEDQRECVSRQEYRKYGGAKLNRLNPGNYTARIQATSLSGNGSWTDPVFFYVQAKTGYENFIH
T2 sequence (P06213 28-758 limits assumed): as the sequence (P06213 28-758 limits assumed) above
T2 sequence (P06213 763-956 limits assumed): as the sequence (P06213 763-956 limits assumed) above

`CC(C)[C@H](NC(=O)[C@H](Cc1ccccc1)NC(=O)[C@H](Cc1c[nH]c2ccccc12)NC(=O)[C@H](CC(=O)O)NC(=O)[C@H](Cc1ccc(O)cc1)NC(=O)[C@H](Cc1ccccc1)NC(=O)[C@H](CC(N)=O)NC(=O)[C@H](C)NC(=O)[C@H](C)NC(=O)[C@H](CC(=O)O)NC(=O)CNC(=O)[C@H](CS)NC(=O)[C@@H]1CCCN1C(=O)[C@H](CCCNC(=N)N)NC(=O)[C@H](C)NC(=O)[C@H](Cc1c[nH]c2ccccc12)NC(=O)[C@H](CS)NC(=O)[C@H](CC(=O)O)NC(=O)[C@H](CCCCN)NC(=O)[C@H](Cc1ccc(O)cc1)NC(=O)[C@@H](N)CC(=O)O)C(=O)N[C@@H](CCC(N)=O)C(=O)N[C@@H](CCC(N)=O)C(=O)N[C@@H](C)C(=O)N[C@@H](CO)C(=O)N[C@@H](CCCCN)C(=O)N[C@@H](CCCCNC(=O)CCCC[C@@H]1SC[C@@H]2NC(=O)N[C@@H]21)C(N)=O` [Clone C1]: in data set [1], the “affinity for HIGF-1R” value is “high affinity”. Besides, the Ratio in data set [1] (Kd HIGF1R / Kd HIR) was determined as 0.1. Besides, on IR [2], the “binding to IR when expressed as phage” value is reported as “do not have detectable binding”. Also, the “binding of biotinylated peptide to IR” value at Insulin receptor was “micromolar range”. For the same compound, the “n (Hill plot)” value is on record as 0.83 on IR [3] (20D3 Phage), 0.46 on IR [3] (H2 Phage) and 0.96 at IGF-1R [4]. In the data set on adipocytes, the Resp. was found to be 0. Also, the “binding of biotinylated peptide to IGF-1 R” value on IGF-1R [5] is given as “nM range”. Moreover, in data set [6], the “Comments (precipitation)” value is “Precipitates”.
